# Test results reported in US20250313879A1, “Fluorescent Probe for Detecting Peptide Bond Hydrolase” (The University of Tokyo, priority 2022, published 2025).
# Assays:
# [1] = Solubility in sealing oil (hexadecane); format: physicochemical; settings: oil or lipid, kinetic from dmso stock, room temperature (25° C.), three tests, average value±standard deviation
# Protocol: That is, 1 μL of a 10 mM DMSO solution of the test compound was added with respect to 100 μL of hexadecane as sealing oil, and the mixture was sonicated and suspended at room temperature (25° C.) for 1 minute. Thereafter, the solution was centrifuged for 30 seconds, 50 μL of the supernatant was collected and mixed with 100 μL of methanol, and a compound dissolved in hexadecane was extracted. Thereafter, the methanol solution from which the compound was extracted was analyzed by ultra performance liquid chromatography (UPLC) (eluent: A/B=95/5>5/95, A: 0.1% formic acid-containing 100% H2O, B: 0.1% formic acid-containing 100% CH3CN), and the concentration of the compound in the methanol solution was calculated from the peak area. In the calculation of the solution concentration using the UPLC peak area, solutions having a plurality of concentrations were prepared and measured for each compound, then a calibration curve was prepared (FIG. 5), and the calculation was performed according to the calibration curve.
# [2] = target: T1, DPP4 (Homo sapiens, UniProt P27487); experiment: Diagnostic experiment of pancreatic cancer utilizing single-molecule enzyme activity of DPP4; format: biochemical
# T1 construct: from tissue; host or cells: human plasma of pancreatic cancer patients and healthy subjects
# T1 sequence (P27487 whole entry): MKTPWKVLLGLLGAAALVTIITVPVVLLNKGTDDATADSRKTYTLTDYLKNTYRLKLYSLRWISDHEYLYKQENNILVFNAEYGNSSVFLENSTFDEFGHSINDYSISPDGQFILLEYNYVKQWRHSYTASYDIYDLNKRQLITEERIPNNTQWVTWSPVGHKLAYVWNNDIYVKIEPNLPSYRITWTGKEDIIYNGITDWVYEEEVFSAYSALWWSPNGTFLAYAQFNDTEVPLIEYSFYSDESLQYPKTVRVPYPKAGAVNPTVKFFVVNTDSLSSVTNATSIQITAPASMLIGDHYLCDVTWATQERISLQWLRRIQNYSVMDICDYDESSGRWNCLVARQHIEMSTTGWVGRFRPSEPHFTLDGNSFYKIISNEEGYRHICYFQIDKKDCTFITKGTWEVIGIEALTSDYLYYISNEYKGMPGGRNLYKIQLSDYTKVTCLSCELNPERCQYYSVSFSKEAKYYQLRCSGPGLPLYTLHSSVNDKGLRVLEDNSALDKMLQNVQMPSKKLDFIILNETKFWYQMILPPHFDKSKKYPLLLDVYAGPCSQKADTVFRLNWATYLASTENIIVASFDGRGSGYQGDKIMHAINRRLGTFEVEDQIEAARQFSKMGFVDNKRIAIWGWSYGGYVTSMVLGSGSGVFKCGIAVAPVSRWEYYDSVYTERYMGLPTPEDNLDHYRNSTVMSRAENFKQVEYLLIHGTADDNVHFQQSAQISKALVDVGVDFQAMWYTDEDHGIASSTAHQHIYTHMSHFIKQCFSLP
# Protocol: In order to detect the single-molecule enzyme activity of DPP4, an experiment to verify the availability of the probe GP-sHMRG to which Gly-Pro is bonded as a reaction point to detect a pancreatic cancer biomarker was performed in the following procedures. • 1. GP-sHMRG as a DPP4 detecting probe was diluted with an assay buffer to 100 μM. The composition of the assay buffer is 100 mM HEPES-NaOH (pH 7.4), 1 mM MgCl2, 1 mM CaCl2), 1 mM DTT, 3 mM Triton X-100. • 2. Next, human plasma samples collected from 30 patients with pancreatic cancer and 30 healthy subjects were each diluted by 2,500 times with the above assay buffer, and mixed in an equal amount with the diluted solution of GP-sHMRG. At this time, the final concentrations of both are 50 μM for the GP-sHMRG probe and 5,000 fold dilution for the human plasma sample. • 3. The mixed solution of both was then added to a microdevice, followed by the addition of sealing oil to enclose the solution in each well. • 4. The microdevice in which the solution was enclosed was incubated at 25° C. for 2 hours, and then the fluorescence intensity of each well was measured with a fluorescence microscope. […] The histogram created based on the detected fluorescence intensity of each well is approximated to a curve including two normal distributions.
# Specifically, in this example, an ROC curve for determination based on the enzyme activity of DPP4 determined based on the proportion of the high activity group is created, and when a threshold is subtracted at the time when the proportion of the high activity group is 55%, the sensitivity is 37% and the specificity is 97% (the right view of FIG. 4). It is possible to determine pancreatic cancer by such an ROC curve.
# [3] = test system: peptidase activity in human plasma sample; experiment: Enzyme activity assay in microdevice with human plasma, peptidase probes; format: biochemical; settings: 50 μM probe, human plasma 5,000 fold dilution, 25° C. for 2 hours
# Protocol: (§1) • 1. GP-sHMRG as a fluorescent probe for detecting peptidase activity was diluted with an assay buffer to 100 μM. The composition of the assay buffer is 100 mM HEPES-NaOH (pH 7.4), 1 mM MgCl2, 1 mM CaCl2, 1 mM DTT, 3 mM Triton X-100. • 2. Next, a human plasma sample was diluted by 2,500 times with the above assay buffer, and mixed in an equal amount with the diluted solution of the probe. At this time, the final concentrations of both are 50 μM for GP-sHMRG and 5,000 fold dilution for the human plasma sample. • 3. The mixed solution of both was then added to a microdevice, followed by the addition of sealing oil to enclose the solution in each well. • 4. The microdevice in which the solution was enclosed was incubated at 25° C. for 2 hours, and then the fluorescence intensity of each well was measured with a fluorescence microscope.
# as §1, with “1. Ac-Ala-sHMRG” for “1. GP-sHMRG”, “by 250” for “by 2,500”, “for Ac-Ala-sHMRG” for “for GP-sHMRG”, “and 500” for “and 5,000”, “at 37°” for “at 25°”, “for 4” for “for 2”
# • 1. Ac-GP-sSiR as a fluorescent probe for detecting peptidase activity was diluted with an assay buffer to 100 μM. The composition of the assay buffer is 100 mM HEPES-NaOH (pH 7.4), 1 mM MgCl2, 1 mM CaCl2, 1 mM DTT, 3 mM Triton X-100. • 2. […] The microdevice in which the solution was enclosed was incubated at 37° C. for 2 hours, and then the fluorescence intensity of each well was measured with a fluorescence microscope.
# [4] = test system: dipeptidyl peptidase; experiment: Signal/noise ratio of enzymolysate in microdevice; format: biochemical; settings: 30 μM probe, 0.2 ng/mL dipeptidyl peptidase, 25° C. 2 hours
# Protocol: (§2) For two types of compounds Glu-sSiR (PB206/Example 12) and GP-sHMRG (PB109/Example 7), the signal/noise ratios of the enzymolysates before and after the enzyme reaction in the cuvette and the microdevice were each measured as follows. In the following experiments, the composition of the assay buffer is 100 mM HEPES-NaOH (pH 7.4), 1 mM MgCl2, 1 mM CaCl2), […].
# For GP-sHMRG, three kinds of solutions of (iv) only an assay buffer, (v) 30 μM of GP-sHMRG, and (vi) 30 μM of GP-sHMRG and 0.2 ng/mL of dipeptidyl peptidase were prepared, and each solution was added to a microdevice, followed by the addition of sealing oil to enclose the solution in each well. The microdevice in which the solution was enclosed was incubated at 25° C. for 2 hours, and then the fluorescence intensity of each well was measured with a fluorescence microscope. When a difference between the average values of the fluorescence intensities of the respective wells in (v) and (iv) was defined as noise, a difference between the average value of the fluorescence intensities of the wells in which the enzyme was encapsulated in (vi) and the average value of the fluorescence intensities of the respective wells in (iv) was defined as a signal, and a ratio of these values was calculated as the signal/noise ratio of the enzymolysate, the ratio was 287 times (see FIG. 8, panel B). […]
# [5] = test system: dipeptidyl peptidase; experiment: Signal/noise ratio of enzymolysate in cuvette; format: biochemical; settings: 10 μM probe, 17 ng/mL dipeptidyl peptidase, 25° C. 9 hours, @527 nm
# Protocol: as §2
# GP-sHMRG was diluted with an assay buffer so as to be 10 μM, then added to a quartz cuvette, and the fluorescence spectrum before the enzyme reaction was measured with a fluorometer (excitation wavelength: 500 nm). Thereafter, dipeptidyl peptidase was added so that the concentration in the solution was 17 ng/mL, the solution was incubated at 25° C. for 9 hours, and then the fluorescence spectrum was measured. The fluorescence spectra before and after the enzyme reaction were compared, the ratio of the values at a wavelength at which the fluorescence intensity was maximized was calculated as the signal/noise ratio of the enzymolysate, the ratio was 481 times (@527 nm) (see FIG. 7B).
# [6] = threshold: proportion of the high activity group is 55%, pancreatic cancer vs healthy
compound,measurement,setting,value
NCC(=O)N1CCCC1C(=O)Nc1ccc2c(c1)Oc1cc(N)ccc1C21OCc2cc(S(=O)(=O)O)ccc21 (stereo not shown) [GP-sHMRG],solubility at 1 min,[1],0.27 ± 0.026 µM
same,ratio of the high activity group to the total of high and low activity groups,"[2]; patients with pancreatic cancer compared with healthy subjects, 50 μM probe, plasma 5,000 fold dilution, 25° C. 2 hours",significant increase
same,"sensitivity (ROC curve, DPP4 activity)",[2]; [6],37%
same,"specificity (ROC curve, DPP4 activity)",[2]; [6],97%
same,fluorescence intensity of wells in which the reacting enzyme was enclosed,[3],increase in fluorescence intensity was observed
same,signal/noise ratio of the enzymolysate,[4],287 times
same,signal/noise ratio of the enzymolysate,[5],481 times
